This is an account of results in patent US11834453B2, “Substituted pyrimido[5,4-d]pyrimidines as HER2 inhibitors” (Array BioPharma Inc., priority 2020, dated 2023).

Where two headings read alike, the source gives them in different places.

In assay [1] the target is ErbB2 insYVMA (HER2-YVMA, SEQ ID NO: 2) (Homo sapiens, UniProt P04626, INS775YVMA/P1170A). In words: biochemical. The settings on record: ErbB2 insYVMA enzyme assay.
Assay [2] addresses ErbB2 WT (Homo sapiens (Human), UniProt P04626). In words: ErbB enzyme assay (CisBio HTRF KinEASE-TK), Assay 2. The format is biochemical. On the procedure:
Compound potencies were determined using CisBio's HTRF Kinease-TK assay technology. The kinases were incubated with 250 nM TK-substrate biotin (CisBio, part of cat #62TK0PEC) at 1 mM ATP along with test compounds in a buffer consisting of 25 mM HEPES, pH 7.4, 10 mM MgCl2, 0.01% Triton X-100, and 2% DMSO in a volume of 8 μL. […] After 30-minute incubation at 22° C., the reaction was quenched by adding 8 μL of quench solution containing 62.5 nM Sa-XL665 and 0.25× TK-Ab-Cryptate in HTRF detection buffer (all from CisBio, part of cat #62TK0PEC). After a 1-hour incubation at 22° C., the extent of reaction was determined using a PerkinElmer EnVision multimode plate reader via HTRF dual wavelength detection, and the percent of control (POC) was calculated using a ratiometric emission factor. One hundred POC was determined using DMSO only samples (no compound present), and 0 POC was determined using pre-quenched control reactions.
(§1) Enzyme lots and concentration used are in Table 2.

Assay [3] addresses EGFR (Homo sapiens (Human), UniProt P00533). Briefly: ErbB enzyme assay (CisBio HTRF KinEASE-TK), Assay 3. The assay is classed as biochemical. On the procedure:
Compound potencies were determined using CisBio's HTRF Kinease-TK assay technology. The kinases were incubated with 250 nM TK-substrate biotin (CisBio, part of cat #62TK0PEC) at 1 mM ATP along with test compounds in a buffer consisting of 25 mM HEPES, pH 7.4, 10 mM MgCl2, 0.01% Triton X-100, and 2% DMSO in a volume of 8 μL. Compounds were prepared as a three-fold serial dilution in DMSO and added to the assay to give the appropriate final concentration. After 30-minute incubation at 22° C., the reaction was quenched by adding 8 μL of quench solution containing 62.5 nM Sa-XL665 and 0.25× TK-Ab-Cryptate in HTRF detection buffer (all from CisBio, part of cat #62TK0PEC). After a 1-hour incubation at 22° C., the extent of reaction was determined using a PerkinElmer EnVision multimode plate reader via HTRF dual wavelength detection, and the percent of control (POC) was calculated using a ratiometric emission factor. One hundred POC was determined using DMSO only samples (no compound present), and 0 POC was determined using pre-quenched control reactions. A 4-parameter logistic curve was fit to the POC values as a function of the concentration of compound, and the IC50 value was the point where the best-fit curve crossed 50 POC.
as §1

The target in assay [4] is ErbB2 with Exon 20 YVMA insertion (HER2-YVMA) (Homo sapiens (Human), UniProt P04626, INS775YVMA). Briefly: Cellular phosphorylation assay, constitutive ErbB2 phosphorylation (Y1196) in engineered NIH 3T3 cells, Assay 4. The assay is classed as cell-based. On the procedure: Serially diluted compounds were added to the plates for 1 hour at 37° C./5% CO2. EGFR WT cells were stimulated with 100 ng/ml rEGF for an additional 10 minutes at 37° C./5% CO2. After compound incubation, medium was removed from the cells, which were then fixed in 3.7% formaldehyde in PBS at room temperature for 20 minutes. Following a wash with PBS, cells were permeabilized with 100% methanol at room temperature for 10 minutes. Cells were then washed with PBS/0.05% Tween-20 and blocked with Odyssey blocking buffer (LI-COR Biosciences) for at least 1 hour at room temperature. Antibodies to phosphorylated ErbB2 (Y1196, Cell Signaling #6942) or phosphorylated EGFR (Y1068, Cell Signaling #3777) and GAPDH (Millipore #MAB374) were added to the cells in blocking buffer containing 0.05% azide and incubated overnight at 4° C. After washing with PBS/0.05° i° Tween-20, the cells were incubated with fluorescently labeled secondary anti-rabbit antibody (LiCOR, IRDye 800CW #926-32211) and anti-mouse antibody (Molecular Probes, Alexa Fluor 680 #A21058) for 1 hour at room temperature in the dark. Cells were then washed and analyzed for fluorescence at both wavelengths using the Odyssey Infrared Imaging System (LI-COR Biosciences). Phosphorylated ErbB2 and EGFR signal was normalized to GAPDH signal to generate curves and calculate IC50 values.
Sequence of ErbB2 with Exon 20 YVMA insertion (HER2-YVMA) (P04626 other isoform, or with tags, fused parts or gaps ins YVMA behind 775): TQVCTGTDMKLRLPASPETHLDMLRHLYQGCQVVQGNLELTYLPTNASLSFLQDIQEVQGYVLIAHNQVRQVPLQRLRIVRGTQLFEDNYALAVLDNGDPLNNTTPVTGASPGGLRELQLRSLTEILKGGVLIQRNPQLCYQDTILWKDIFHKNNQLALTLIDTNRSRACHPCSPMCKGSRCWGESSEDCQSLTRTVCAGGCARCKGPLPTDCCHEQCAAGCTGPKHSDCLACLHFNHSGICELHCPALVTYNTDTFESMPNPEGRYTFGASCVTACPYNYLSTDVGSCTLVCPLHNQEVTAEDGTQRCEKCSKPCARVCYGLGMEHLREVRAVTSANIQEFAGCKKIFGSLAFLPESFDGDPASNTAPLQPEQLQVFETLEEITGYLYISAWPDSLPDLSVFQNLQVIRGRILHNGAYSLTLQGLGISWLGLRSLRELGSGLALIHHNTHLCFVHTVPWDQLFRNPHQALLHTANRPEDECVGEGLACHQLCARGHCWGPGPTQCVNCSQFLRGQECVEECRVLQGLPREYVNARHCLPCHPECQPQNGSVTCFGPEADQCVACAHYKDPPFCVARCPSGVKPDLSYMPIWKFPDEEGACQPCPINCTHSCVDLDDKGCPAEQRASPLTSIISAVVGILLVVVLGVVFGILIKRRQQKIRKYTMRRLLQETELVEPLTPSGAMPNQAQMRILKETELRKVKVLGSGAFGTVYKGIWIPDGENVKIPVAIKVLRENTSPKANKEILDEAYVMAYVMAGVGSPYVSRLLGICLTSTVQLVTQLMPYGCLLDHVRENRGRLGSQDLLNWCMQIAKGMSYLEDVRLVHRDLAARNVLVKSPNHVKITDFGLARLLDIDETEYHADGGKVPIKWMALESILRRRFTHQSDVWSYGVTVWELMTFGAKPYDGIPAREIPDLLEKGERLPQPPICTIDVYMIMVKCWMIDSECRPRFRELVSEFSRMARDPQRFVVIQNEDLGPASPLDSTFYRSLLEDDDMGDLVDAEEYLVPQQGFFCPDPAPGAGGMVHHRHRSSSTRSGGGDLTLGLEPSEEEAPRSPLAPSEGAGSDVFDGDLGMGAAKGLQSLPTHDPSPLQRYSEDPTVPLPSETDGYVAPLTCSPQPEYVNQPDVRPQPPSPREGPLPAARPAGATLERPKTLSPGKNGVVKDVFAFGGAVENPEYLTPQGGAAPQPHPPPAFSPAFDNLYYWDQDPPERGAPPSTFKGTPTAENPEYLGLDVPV

In assay [5] the target is EGFR wild type (EGFR WT) (Homo sapiens (Human), UniProt P00533). In words: Cellular phosphorylation assay, EGF-stimulated EGFR phosphorylation in engineered NIH 3T3 cells, Phospho-EGFR DuoSet IC ELISA, Assay 5. The format is cell-based. On the procedure: NIH 3T3 cells were engineered to express EGFR wild type (EGFR WT; Assay 5, no footnote) with constructs obtained from GenScript and grown in DMEM supplemented with 10% fetal bovine serum and 15 μg/ml blasticidin. Cells were plated in 96-well plates at 20,000 cells/well and allowed to attach overnight at 37° C./5% CO2. Serially diluted compounds were added to the plates for 1 hour at 37° C./5% CO2. EGFR WT cells were stimulated with 100 ng/ml rEGF for an additional 10 minutes at 37° C./5% CO2. After compound incubation, medium was removed from the cells, which were then lysed in 100 μL/well lysis buffer according to the manufacturer's protocol (R&D Systems, DYC1095, Human Phospho-EGFR DuoSet IC ELISA). Same protocol was followed to determine the total levels of phospho-EGFR by measuring the optical density of each well using a VersaMax microplate reader. Curves were then generated and IC50 values calculated.
Sequence of EGFR wild type (EGFR WT) (P00533 25-1210): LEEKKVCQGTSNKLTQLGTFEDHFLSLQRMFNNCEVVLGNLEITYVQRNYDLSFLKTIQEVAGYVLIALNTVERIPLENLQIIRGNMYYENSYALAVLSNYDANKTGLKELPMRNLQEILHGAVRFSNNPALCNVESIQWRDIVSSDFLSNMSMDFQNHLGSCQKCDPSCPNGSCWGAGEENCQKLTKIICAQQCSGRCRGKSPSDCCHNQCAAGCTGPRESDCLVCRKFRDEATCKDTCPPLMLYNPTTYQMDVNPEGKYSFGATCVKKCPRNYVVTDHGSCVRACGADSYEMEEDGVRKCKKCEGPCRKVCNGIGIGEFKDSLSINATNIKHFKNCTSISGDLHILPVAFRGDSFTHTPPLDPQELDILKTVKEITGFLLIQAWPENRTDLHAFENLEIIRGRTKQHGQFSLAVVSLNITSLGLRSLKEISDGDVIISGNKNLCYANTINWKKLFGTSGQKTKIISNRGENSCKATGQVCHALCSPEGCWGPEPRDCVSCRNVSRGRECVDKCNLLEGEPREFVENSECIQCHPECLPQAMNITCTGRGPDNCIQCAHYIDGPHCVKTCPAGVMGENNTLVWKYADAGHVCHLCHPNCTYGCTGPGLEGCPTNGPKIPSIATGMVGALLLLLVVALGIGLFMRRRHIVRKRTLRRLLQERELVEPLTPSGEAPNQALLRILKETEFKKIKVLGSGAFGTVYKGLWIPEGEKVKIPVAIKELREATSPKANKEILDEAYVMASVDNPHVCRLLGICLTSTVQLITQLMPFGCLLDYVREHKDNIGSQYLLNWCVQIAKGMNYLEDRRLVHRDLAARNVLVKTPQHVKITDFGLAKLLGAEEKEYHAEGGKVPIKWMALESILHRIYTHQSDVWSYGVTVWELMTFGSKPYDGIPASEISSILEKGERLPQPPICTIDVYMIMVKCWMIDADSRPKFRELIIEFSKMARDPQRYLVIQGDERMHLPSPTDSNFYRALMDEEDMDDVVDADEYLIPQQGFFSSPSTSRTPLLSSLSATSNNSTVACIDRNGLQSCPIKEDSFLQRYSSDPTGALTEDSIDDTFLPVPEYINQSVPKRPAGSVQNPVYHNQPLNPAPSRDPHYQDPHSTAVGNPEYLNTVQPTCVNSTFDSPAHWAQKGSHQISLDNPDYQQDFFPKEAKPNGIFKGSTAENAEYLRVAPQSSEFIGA

Sequence of EGFR (P00533 25-1210): as above
Sequence of ErbB2 WT (P04626 23-1255): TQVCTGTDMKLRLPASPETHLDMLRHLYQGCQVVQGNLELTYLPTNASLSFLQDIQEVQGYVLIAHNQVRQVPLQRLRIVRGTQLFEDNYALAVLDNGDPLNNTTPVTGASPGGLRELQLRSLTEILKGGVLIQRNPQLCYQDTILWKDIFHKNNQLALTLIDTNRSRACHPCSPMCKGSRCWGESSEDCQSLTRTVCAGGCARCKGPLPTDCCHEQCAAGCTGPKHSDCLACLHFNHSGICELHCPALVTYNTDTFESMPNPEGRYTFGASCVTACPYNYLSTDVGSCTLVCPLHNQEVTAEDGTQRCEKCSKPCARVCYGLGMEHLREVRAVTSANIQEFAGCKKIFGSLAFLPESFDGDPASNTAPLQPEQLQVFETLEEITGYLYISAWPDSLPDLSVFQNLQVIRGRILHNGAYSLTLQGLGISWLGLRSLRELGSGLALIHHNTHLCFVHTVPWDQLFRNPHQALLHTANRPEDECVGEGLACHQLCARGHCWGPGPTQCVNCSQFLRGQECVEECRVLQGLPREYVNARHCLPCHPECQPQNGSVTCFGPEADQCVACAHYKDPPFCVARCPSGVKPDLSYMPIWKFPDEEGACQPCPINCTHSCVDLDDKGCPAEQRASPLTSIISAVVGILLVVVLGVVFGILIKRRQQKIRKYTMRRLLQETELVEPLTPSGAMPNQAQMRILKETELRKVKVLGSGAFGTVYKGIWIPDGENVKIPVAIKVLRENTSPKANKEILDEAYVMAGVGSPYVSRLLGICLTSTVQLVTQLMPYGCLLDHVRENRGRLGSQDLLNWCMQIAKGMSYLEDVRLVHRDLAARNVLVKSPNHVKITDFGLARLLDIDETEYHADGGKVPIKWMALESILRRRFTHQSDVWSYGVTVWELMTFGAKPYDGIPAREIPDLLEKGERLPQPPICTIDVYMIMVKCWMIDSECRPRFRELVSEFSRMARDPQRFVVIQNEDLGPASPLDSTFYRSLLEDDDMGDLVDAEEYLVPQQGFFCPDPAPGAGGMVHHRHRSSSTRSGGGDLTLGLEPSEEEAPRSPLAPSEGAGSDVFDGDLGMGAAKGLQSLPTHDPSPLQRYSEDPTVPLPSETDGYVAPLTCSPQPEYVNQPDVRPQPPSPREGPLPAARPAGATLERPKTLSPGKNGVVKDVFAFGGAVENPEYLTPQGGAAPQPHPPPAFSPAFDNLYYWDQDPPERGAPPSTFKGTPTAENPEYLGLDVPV

For the molecule `Cc1cc(Nc2ncnc3cnc(N4CCC[C@@]45CCOC5)nc23)ccc1Oc1ccc2c(c1)ncn2C` (racemic) [Example 115, rac-(R)—N-(3-methyl-4-((1-methyl-1H-benzo[d]imidazol-5-yl)oxy)phenyl)-6-(7-oxa-1-azaspiro[4.4]nonan-1-yl)pyrimido[5,4-d]pyrimidin-4-amine], the half-inhibitory concentration (IC50) was 52.4 nM in assay [1] (read-out: Assay 1 IC50); 56.7 nM in assay [2]; 2190 nM in assay [3]; 15.6 nM in assay [4]; no less than 5000 nM in assay [5].

Take `Cc1cc(Nc2ncnc3cnc(N4CC[C@]45CCOC5)nc23)ccc1Oc1ccc2c(c1)ncn2C` (single isomer, unassigned) [Example 93b]: the IC50 is 16.2 nM in assay [1] (read-out: Assay 1 IC50); 11.6 nM in assay [2]; 1350 nM in assay [3]; 13.9 nM in assay [4]; no less than 5000 nM in assay [5].

Consider `CCOc1ncc2ncnc(Nc3ccc(Oc4ccc5c(c4)ncn5C)c(C)c3)c2n1` [Example 13, 6-ethoxy-N-(3-methyl-4-((1-methyl-1H-benzo[d]imidazol-5-yl)oxy)phenyl)pyrimido[5,4-d]pyrimidin-4-amine], for which the IC50 was 35.1 nM in assay [1] (read-out: Assay 1 IC50), no less than 10000 nM in assay [3], 295 nM in assay [4] and no less than 5000 nM in assay [5].

Turning to `Cc1cc(Nc2ncnc3cnc(N4CCC5(CCOC5)C4)nc23)ccc1Oc1ccc2c(c1)ncn2C` (centres unmarked) [Example 15, N-(3-methyl-4-((1-methyl-1H-benzo[d]imidazol-5-yl)oxy)phenyl)-6-(2-oxa-7-azaspiro[4.4]nonan-7-yl)pyrimido[5,4-d]pyrimidin-4-amine], the IC50 is 21.4 nM in assay [1] (read-out: Assay 1 IC50); 51.1 nM in assay [2]; no less than 10000 nM in assay [3]; 23.4 nM in assay [4]; no less than 5000 nM in assay [5].

Turning to `Cc1cc(Nc2ncnc3cnc(N4C[C@H]5CC[C@@H]4CO5)nc23)ccc1Oc1ccn2ncnc2c1` [Example 127, N-(4-([1,2,4]triazolo[1,5-a]pyridin-7-yloxy)-3-methylphenyl)-6-((1R,4R)-2-oxa-5-azabicyclo[2.2.2]octan-5-yl)pyrimido[5,4-d]pyrimidin-4-amine], the IC50 is 40.7 nM in assay [1] (read-out: Assay 1 IC50), no less than 10000 nM in assay [3], 151 nM in assay [4] and no less than 5000 nM in assay [5].

Regarding `Cc1cc(Nc2ncnc3cnc(N4CCC(S(C)(=O)=O)CC4)nc23)ccc1Oc1ccc2c(c1)ncn2C` [Example 224], the IC50 in assay [3] was no less than 10000 nM; in assay [5] it was no less than 5000 nM.

`Cc1cc(Nc2ncnc3cnc(O[C@@H]4CNC[C@@H]4F)nc23)ccc1Oc1ccc2c(c1)ncn2C` [Example 283]: the IC50 in assay [1] (read-out: Assay 1 IC50) is 39.5 nM; in assay [2] it was 301 nM; in assay [3], no less than 10000 nM; in assay [4] it was 261 nM.

In assay [5], `Cc1cc(Nc2ncnc3cnc(N4CC[C@](C)(O)C4)nc23)ccc1Oc1ccc2c(c1)ncn2C` [Example 294] gave an IC50 of no less than 5000 nM.

As for `Cc1c(Oc2ccc3c(c2)ncn3C)ccc(Nc2ncnc3cnc(N4CC[C@](C)(O)C4)nc23)c1F` [Example 310], the IC50 in assay [5] is no less than 5000 nM.

For `Cc1c(Oc2ccn3ncnc3c2)ccc(Nc2ncnc3cnc(N4C[C@@H]5C[C@H]4CO5)nc23)c1F` [Example 313], the figures for the IC50 in assay [3], in assay [4] and in assay [5] were 4150 nM, 1760 nM and no less than 5000 nM, respectively.

Turning to `Cc1cc(Nc2ncnc3cnc(N4CC(C(C)(C)O)C4)nc23)ccc1Oc1ccn2ncnc2c1` [Example 343], the IC50 was 113 nM in assay [1] (read-out: Assay 1 IC50), 120 nM in assay [2], 1490 nM in assay [4] and no less than 5000 nM in assay [5].

In the case of `Cc1cc(Nc2ncnc3cnc(N4CCO[C@]5(CCOC5)C4)nc23)ccc1Oc1ccc2c(c1)ncn2C` [Example 357], the IC50 in assay [3] is no less than 10000 nM; in assay [5], no less than 5000 nM.

For `Cc1cc(Nc2ncnc3cnc(N4CC[C@H]4C(F)F)nc23)ccc1Oc1ccc2c(c1)ncn2C` [Example 388], the IC50 in assay [1] (read-out: Assay 1 IC50) is 62.1 nM; in assay [2], 89.4 nM; in assay [3], no less than 10000 nM; in assay [4] it was 52.2 nM.

Consider `Cc1cc(Nc2ncnc3cnc(N4CC[C@@H]4C(C)(C)O)nc23)ccc1Oc1ccc2c(c1)ncn2C` [Example 397], for which the IC50 in assay [1] (read-out: Assay 1 IC50) is 20.3 nM; in assay [2] it was 144 nM; in assay [3] it was no less than 10000 nM; in assay [4] it was 115 nM.

Turning to `Cc1cc(Nc2ncnc3cnc(N4CC[C@H]4C(C)(C)O)nc23)ccc1Oc1ccc2c(c1)ncn2C` [Example 407], the IC50 in assay [1] (read-out: Assay 1 IC50) was 31.5 nM; in assay [2], 117 nM; in assay [3], no less than 10000 nM; in assay [4] it was 84.1 nM.

For the molecule `Cc1cc(Nc2ncnc3cnc(N4CCC5(COC5)C4)nc23)ccc1Oc1ccc2c(c1)ncn2C` [Example 422], the IC50 is 58.4 nM in assay [1] (read-out: Assay 1 IC50), 93.2 nM in assay [2], no less than 10000 nM in assay [3] and 96.7 nM in assay [4].

Take `Cc1cc(Nc2ncnc3cnc(N4CCCCS4(=O)=O)nc23)ccc1Oc1ccc2c(c1)ncn2C` [Example 437]: the IC50 was 40.8 nM in assay [1] (read-out: Assay 1 IC50), 146 nM in assay [2], no less than 10000 nM in assay [3] and 95.8 nM in assay [4].

Turning to `C[C@@H]1CN(c2ncc3ncnc(Nc4ccc(Oc5ccc6c(c5)ncn6C)c(Cl)c4)c3n2)CCN1C` [Example 439], the IC50 in assay [1] (Assay 1 IC50 (nM)) is 38.7 nM; in assay [2], 70 nM; in assay [4], 45.3 nM; in assay [5], no less than 5000 nM.

In the case of `Cc1c(Oc2ccc3c(c2)ncn3C)ccc(Nc2ncnc3cnc(N4CC5CC4CO5)nc23)c1F` (centres unmarked) [Example 454], the IC50 in assay [1] (read-out: Assay 1 IC50) worked out at 15.3 nM; in assay [2], 48.1 nM; in assay [3], 4110 nM; in assay [4], 54.7 nM.

`Cc1cc(Nc2ncnc3cnc(N4CCC5COCC54)nc23)ccc1Oc1ccc2c(c1)ncn2C` (centres unmarked) [Example 472]: in assay [5], the IC50 is no less than 5000 nM.

As to `Cc1cc(Nc2ncnc3cnc(N(C)[C@@H]4CCCOC4)nc23)ccc1Oc1ccc2c(c1)ncn2C` [Example 473], the IC50 in assay [3] was 1530 nM; in assay [4], 5.8 nM; in assay [5], no less than 5000 nM.

Take `Cc1cc(Nc2ncnc3cnc(N4CC[Si](C)(C)CC4)nc23)ccc1Oc1ccc2c(c1)ncn2C` [Example 474]: the IC50 in assay [1] (Assay 1 IC50 (nM)) is 254 nM; in assay [2], 727 nM; in assay [3], no less than 10000 nM; in assay [4], 559 nM.

For the molecule `Cc1cc(Nc2ncnc3cnc(OCC(C)(C)O)nc23)ccc1Oc1ccc2c(c1)ncn2C` [Example 476], the IC50 was 39.5 nM in assay [1] (read-out: Assay 1 IC50), 232 nM in assay [2], no less than 10000 nM in assay [3] and 155 nM in assay [4].
